The text below walks through data of patent US12655116B2, “Substituted isophthalic acid diamides” (Bayer Aktiengesellschaft, priority 2020, dated 2026).

One experiment deals with harmful plants. Nature of the experiment: Comparative experiments: herbicidal post-emergence action versus compounds known from D1 (WO 2012/028579 A1). Type of experiment: in vivo. Also on record: key to Herbicidal action against ALOMY / Herbicidal action against AVEFA / Herbicidal action against LOLRI / Herbicidal action against MATIN / Herbicidal action against HORMU / Herbicidal action against ECHCG / Herbicidal action against SETVI / Herbicidal action against ABUTH / Herbicidal action against STEME / Herbicidal action against VIOTR / Herbicidal action against AMARE: % herbicidal action: 100 = plants died, 0 = like untreated control. The note with it: 5 g a.i./ha. As to the method: (§1) Seeds of monocotyledonous and dicotyledonous weed and crop plants are laid out in sandy loam soil in wood-fiber pots, covered with soil and cultivated in a greenhouse under good growth conditions. 2 to 3 weeks after sowing, the test plants are treated at the one-leaf stage. The compounds of the invention, formulated in the form of wettable powders (WP) or as emulsion concentrates (EC), are then sprayed onto the green parts of the plants in the form of an aqueous suspension or emulsion at a water application rate equivalent to 600 to 800 l/ha, with addition of 0.2% wetting agent. After the test plants have been left to stand in the greenhouse under optimal growth conditions for about 3 weeks, the action of the preparations is assessed visually in comparison to untreated controls (herbicidal action in percent (%): 100% activity=the plants have died, 0% activity=like control plants). […] The tables below illustrate, in an illustrative manner, the post-emergence herbicidal action of the compounds of the invention, the herbicidal activity being stated in percent. In the experiments that follow, herbicidal action of numerous inventive compounds and the structurally closest compounds known from D1 (WO 2012/028579 A1) were compared under the above-specified conditions by the pre-emergence and post-emergence method. The example numbers given in the tables relate to the compounds disclosed in the respective documents.

The test system of experiment [1] is CYPES. Nature of the experiment: Post-emergence herbicidal action against CYPES. Format: in vivo, Cyperus esculentus. The note with it: visual assessment about 3 weeks after treatment, 100% = plants have died, 0% = like control plants. On the procedure:
as §1, with “percent.” for “percent. In the experiments that follow, herbicidal action of numerous inventive compounds and the structurally closest compounds known from D1 (WO 2012/028579 A1) were compared under the above-specified conditions by the pre-emergence and post-emergence method. The example numbers given in the tables relate to the compounds disclosed in the respective documents.”

In a further experiment the test system is STEME. Nature of the experiment: Post-emergence herbicidal action against STEME. The conditions noted are these: Stellaria media, 504 h; for pest or weed control at 5 g/ha: dosage 5 g/ha. Type of experiment: in vivo, Stellaria media. Summed up: (§2)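 Herbicidal action is a visual percentage rating (0% = as untreated control, 100% = plants dead) made roughly 3 weeks after treatment. Plants were grown in sandy loam in the greenhouse and treated at the one-leaf stage, 2 to 3 weeks post-sowing. Treatment was a foliar spray of wettable-powder or emulsion-concentrate formulations at 600 to 800 l/ha water plus 0.2% wetting agent.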

The next experiment deals with AVEFA. Nature of the experiment: Pre-emergence herbicidal action against AVEFA. Type of experiment: in vivo, Avena fatua. The conditions noted are these: Avena fatua, 504 h, pre-emergence; for pest or weed control at 20 g/ha / pest or weed control at 320 g/ha: scored visually after 3 weeks, 100% = plants have died, 0% = like control plants. Summed up:
(§3)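 Sandy loam pots, seeds covered with soil, then surface-treated with WP or EC formulations at 600–800 l/ha water plus 0.2% wetting agent. Greenhouse, 3 weeks. Percent damage vs untreated controls.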

Experiment [2] deals with CYPES. Nature of the experiment: Pre-emergence herbicidal action against CYPES. Format: in vivo. The conditions noted are these: Cyperus esculentus, 504 h; for pest or weed control at 20 g/ha / pest or weed control at 80 g/ha: scored visually after 3 weeks, 100% = plants have died, 0% = like control plants. An excerpt: Seeds of monocotyledonous and dicotyledonous weed plants and crop plants are laid out in sandy loam soil in wood-fiber pots and covered with soil. The compounds of the invention, formulated in the form of wettable powders (WP) or as emulsion concentrates (EC), are then applied to the surface of the covering soil in the form of an aqueous suspension or emulsion at a water application rate equivalent to 600 to 800 l/ha, with addition of 0.2% wetting agent. After the treatment, the pots are placed in a greenhouse and kept under good growth conditions for the trial plants. The damage to the test plants is scored visually after a test period of 3 weeks by comparison with untreated controls (herbicidal activity in percent (%): 100% activity=the plants have died, 0% activity=like control plants). […] The tables below illustrate, in an illustrative manner, the post-emergence herbicidal action of the compounds of the invention, the herbicidal activity being stated in percent.

Another experiment deals with AMARE. Nature of the experiment: Pre-emergence herbicidal action against AMARE. Format: in vivo, Amaranthus retroflexus. The note with it: Amaranthus retroflexus, 504 h, 100% = plants have died, 0% = like control plants; for pest or weed control at 20 g/ha / pest or weed control at 80 g/ha: scored visually after 3 weeks vs untreated controls; for pest or weed control at 320 g/ha: scored visually after 3 weeks. Summed up: as §3

The subject of another experiment is PHBPU. Nature of the experiment: Pre-emergence herbicidal action against PHBPU. Format: in vivo, Pharbitis purpurea. The note with it: Ipomoea purpurea, 504 h; for pest or weed control at 80 g/ha: dosage 80 g/ha; for pest or weed control at 320 g/ha: dosage 320 g/ha. Summed up: as §3
The subject of a further experiment is ABUTH. Nature of the experiment: Post-emergence herbicidal action against ABUTH. Type of experiment: in vivo, Abutilon theophrasti. The conditions noted are these: Abutilon theophrasti, 504 h, visual assessment about 3 weeks after treatment vs untreated controls; for pest or weed control at 5 g/ha: dosage 5 g/ha; for pest or weed control at 20 g/ha: dosage 20 g/ha; for pest or weed control at 80 g/ha: dosage 80 g/ha. Summed up:
as §2

Structures are written as SMILES.

`CNC(=O)c1c(C(F)(F)F)ccc(C(=O)Nc2nnnn2C)c1Cl` [Example 1-129]: the “Herbicidal action against ABUTH” value with harmful plants (ABUTH) amounted to 100. The “Herbicidal action against ALOMY” value with harmful plants was 90. Also, the “Herbicidal action against ECHCG” value in the experiment on harmful plants (ECHCG) worked out at 100. Besides, the “Herbicidal action against SETVI” value with harmful plants was 100. Further, the “Herbicidal action against STEME” value with harmful plants (STEME) is 100. The “Herbicidal action against VIOTR” value in the experiment with harmful plants (VIOTR) came to 80. Further, in the experiment on CYPES [1], the “Post-emergence action at 80 g/ha against CYPES in %” value was 80%. For the same compound, the pest or weed control (in general, the degree to which the test organism was suppressed or injured, in per cent) at 20 g/ha with STEME is 100%; with AVEFA it was 100%; in the experiment on CYPES [2], 90%; in the experiment on AMARE, 100%; in the experiment with ABUTH it was 100%. Moreover, the pest or weed control at 80 g/ha came to 100% in the experiment on STEME; 100% with AVEFA; 90% in the experiment with CYPES [2]; 100% with AMARE; 90% with PHBPU; 100% with ABUTH. Also, the pest or weed control at 5 g/ha in the experiment on STEME and in the experiment on ABUTH was 100% in each case. Besides, the pest or weed control at 320 g/ha in the experiment with AVEFA, in the experiment on CYPES [2], with AMARE and in the experiment with PHBPU was 100% each time.

For `Cn1nnnc1NC(=O)c1ccc(C(F)(F)F)c(C(N)=O)c1Cl` [Example 1-338], in the experiment on CYPES [1] (20 g/ha), the “Post-emergence action at 20 g/ha against CYPES in %” value came out at 80%. The “Post-emergence action at 80 g/ha against CYPES in %” value in the experiment with CYPES [1] worked out at 90%. In addition, the pest or weed control at 80 g/ha in the experiment with STEME was 90%; in the experiment with AVEFA, 90%; in the experiment on CYPES [2], 90%; with AMARE it was 100%; with ABUTH it was 100%. In addition, the pest or weed control at 320 g/ha with AVEFA worked out at 100%; in the experiment on CYPES [2] it was 100%; in the experiment with AMARE, 100%; in the experiment with PHBPU, 80%. Also, the pest or weed control at 20 g/ha came out at 100% with AMARE and 90% with ABUTH. The compound also had a pest or weed control at 5 g/ha in the experiment on ABUTH of 90%.

As to `CCn1nnnc1NC(=O)c1ccc(C(F)(F)F)c(C(=O)NC)c1Cl` [Example 2-129], the “Herbicidal action against ALOMY” value with harmful plants was 100. Also, the “Herbicidal action against AMARE” value in the experiment with harmful plants (AMARE) is listed as 100. In addition, the “Herbicidal action against AVEFA” value with harmful plants (AVEFA) is recorded as 100. Besides, the “Herbicidal action against HORMU” value in the experiment on harmful plants (HORMU) was 80. Besides, the “Herbicidal action against MATIN” value with harmful plants (MATIN) worked out at 80. In addition, the “Herbicidal action against SETVI” value in the experiment with harmful plants turned out to be 100. For the same compound, the “Post-emergence action at 80 g/ha against CYPES in %” value in the experiment on CYPES [1] is 90%. The pest or weed control at 20 g/ha in the experiment with STEME, in the experiment on AVEFA, in the experiment with CYPES [2], in the experiment with AMARE and in the experiment on ABUTH was 100% throughout. For the same compound, the pest or weed control at 80 g/ha stood at 100% in the experiment with STEME; 100% with AVEFA; 100% in the experiment with CYPES [2]; 100% in the experiment on AMARE; 90% in the experiment with PHBPU; 100% in the experiment on ABUTH. In addition, the pest or weed control at 5 g/ha with STEME and with ABUTH was 100% throughout. In addition, the pest or weed control at 320 g/ha in the experiment on AVEFA, in the experiment on CYPES [2], in the experiment on AMARE and with PHBPU was 100% in each case.
